Experimental data reported in the supplement of paper PMC5908809.

Tests used:
[1] = system: normal NK cells expanded with K562-aAPC; assay: percent inhibition of viability; higher = more inhibition; conditions: 72 h, IL-2 2.5 ng/mL
Experimental: (§1)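 Drug sensitivity and resistance testing on K562-aAPC-expanded normal NK cells: 5 concentrations (10-fold steps over a 10,000-fold range), 72 h at 37 °C, viability by CellTiter-Glo normalised to DMSO and benzethonium chloride controls; DSS from the fitted curve.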

[2] = system: DERL-7 (IL-2 2.5 ng/mL); assay: as above; conditions: 72 h
[3] = system: IMC-1 (IL-2 20 ng/mL); assay: as above; conditions: 72 h
[4] = system: KAI3 (IL-2 2.5 ng/mL); assay: as above; conditions: 72 h
[5] = system: KHYG-1 (IL-2 2.5 ng/mL); assay: as above; conditions: 72 h
[6] = system: NK-92 (IL-2 2.5 ng/mL); assay: as above; conditions: 72 h
[7] = system: NK-YS (IL-2 2.5 ng/mL); assay: as above; conditions: 72 h
[8] = system: NKL (IL-2 2.5 ng/mL); assay: as above; conditions: 72 h
[9] = system: SNK-6 (IL-2 2.5 ng/mL); assay: as above; conditions: 72 h
[10] = system: YT (IL-2 2.5 ng/mL); assay: as above; conditions: 72 h
[11] = system: normal primary NK cells, pool 1 (3 donors) (IL-2 2.5 ng/mL); assay: as above; conditions: 72 h
[12] = system: normal primary NK cells, pool 1 (3 donors), resting (IL-2 0 ng/mL); assay: as above; conditions: 72 h
[13] = system: normal primary NK cells, pool 2 (3 donors) (IL-2 2.5 ng/mL); assay: as above; conditions: 72 h
[14] = system: normal primary NK cells, pool 3 (3 donors) (IL-2 2.5 ng/mL); assay: as above; conditions: 72 h
[15] = system: normal NK cells expanded with K562-aAPC; assay: drug sensitivity score (DSS) (DSS units); higher = more sensitive; extreme values may be limits of the assay; conditions: 72 h; IL-2 2.5 ng/mL
Experimental: as §1

[16] = system: DERL-7 (IL-2 2.5 ng/mL); assay: as above; conditions: 72 h
[17] = system: IMC-1 (IL-2 20 ng/mL); assay: as above; conditions: 72 h
[18] = system: KAI3 (IL-2 2.5 ng/mL); assay: as above; conditions: 72 h
[19] = system: KHYG-1 (IL-2 2.5 ng/mL); assay: as above; conditions: 72 h
[20] = system: NK-92 (IL-2 2.5 ng/mL); assay: as above; conditions: 72 h
[21] = system: NK-YS (IL-2 2.5 ng/mL); assay: as above; conditions: 72 h
[22] = system: NKL (IL-2 2.5 ng/mL); assay: as above; conditions: 72 h
[23] = system: SNK-6 (IL-2 2.5 ng/mL); assay: as above; conditions: 72 h
[24] = system: YT (IL-2 2.5 ng/mL); assay: as above; conditions: 72 h
[25] = system: normal primary NK cells, pool 1 (3 donors) (IL-2 2.5 ng/mL); assay: as above; conditions: 72 h
[26] = system: normal primary NK cells, pool 1 (3 donors), resting (IL-2 0 ng/mL); assay: as above; conditions: 72 h
[27] = system: normal primary NK cells, pool 2 (3 donors) (IL-2 2.5 ng/mL); assay: as above; conditions: 72 h
[28] = system: normal primary NK cells, pool 3 (3 donors) (IL-2 2.5 ng/mL); assay: as above; conditions: 72 h

S=C(NCc1ccc2c(c1)OCO2)N1CCN(c2ncnc3c2oc2ccccc23)CC1 [Amuvatinib] (max concentration tested 10000 nM)
percent inhibition of viability [%]
Conditions | 1 nM | 10 nM | 100 nM | 1000 nM | 10000 nM
[1] | -2.56 | -1.86 | -4.91 | 0.6 | 18.6
[2] | 0.19 | 2.67 | 18 | 55.9 | 90.5
[3] | -1.71 | -0.29 | 1.01 | 41.2 | 44.1
[4] | 3.55 | -2.41 | 7.21 | 17.6 | 54.5
[5] | -5.63 | -5.61 | -1.04 | 24.3 | 73.6
[6] | -8.12 | -11.4 | -3.54 | 36.4 | 65.1
[7] | -2.83 | -6.84 | -2.71 | 12.6 | 91
[8] | -10.5 | -7.21 | 6.91 | 53.6 | 95
[9] | 13.3 | -6.01 | 16.5 | 40.9 | 60.9
[10] | -2.59 | -1.83 | 3.31 | 19.5 | 49.5
[11] | -0.46 | 10.3 | 3.46 | 19.5 | 80.3
[12] | 7.55 | 15.6 | 5.58 | 28.6 | 83.9
[13] | -4.53 | 2.76 | 7.13 | 11.1 | 69.2
[14] | -1.07 | 8.45 | 6.14 | 11.8 | 60.8

Conditions | drug sensitivity score
[15] | 0.55
[16] | 12.9
[17] | 7.59
[18] | 4.97
[19] | 7.56
[20] | 8.04
[21] | 7.16
[22] | 11.7
[23] | 9.4
[24] | 4.88
[25] | 7.49
[26] | 8.27
[27] | 5.67
[28] | 5.25

CC(C)(C#N)c1cc(Cn2cncn2)cc(C(C)(C)C#N)c1 [Anastrozole] (max concentration tested 10000 nM)
percent inhibition of viability [%]
Conditions | 1 nM | 10 nM | 100 nM | 1000 nM | 10000 nM
[1] | -3.07 | -7.42 | -9.56 | -10 | -14.1
[2] | 1.86 | 1.72 | 1.5 | 4.62 | 1.85
[3] | -2.19 | -4.02 | -0.27 | -6.87 | -2.18
[4] | 4.34 | -3.23 | 4.57 | -3.97 | 4.8
[5] | -3.64 | -8.98 | -2.57 | -9.89 | -0.45
[6] | 2.62 | -14.9 | -4.14 | -11.2 | 0.08
[7] | -0.21 | -1.51 | -0.63 | -2.69 | -1.18
[8] | -3.4 | -8.92 | 1.02 | -7.99 | 1.34
[9] | -1.06 | 23.5 | 22.5 | -18.6 | 2.15
[10] | 6.09 | -6.8 | 6.6 | -5.12 | 8.27
[11] | -5.66 | -8.98 | -13.5 | 1.93 | -12.4
[12] | 0.43 | -12.5 | -9.34 | -4.56 | 1.51
[13] | -14.1 | -1.97 | -6.31 | -1.14 | -6.99
[14] | -11.2 | -0.62 | -6.71 | -6.71 | -5.25

Conditions | drug sensitivity score
[15] | 0
[16] | 0
[17] | 0
[18] | 0
[19] | 0
[20] | 0
[21] | 0
[22] | 0
[23] | 0
[24] | 0
[25] | 0
[26] | 0
[27] | 0
[28] | 0
